IC50 data for 23 compounds are collected here from patent publication EP3421457B1, “PYRIMIDINE FGFR4 INHIBITORS” (priority 2013, dated 2015).

In general, pIC50 refers to the negative decadic logarithm of the IC50, by convention in mol/L. Lower therefore signals a large IC50.

Molecules are shown by their SMILES. pIC50: −log10 of the molar value. Structures can show the parent of a compound that is named as a salt.

T1 sequence (P22455 22-802): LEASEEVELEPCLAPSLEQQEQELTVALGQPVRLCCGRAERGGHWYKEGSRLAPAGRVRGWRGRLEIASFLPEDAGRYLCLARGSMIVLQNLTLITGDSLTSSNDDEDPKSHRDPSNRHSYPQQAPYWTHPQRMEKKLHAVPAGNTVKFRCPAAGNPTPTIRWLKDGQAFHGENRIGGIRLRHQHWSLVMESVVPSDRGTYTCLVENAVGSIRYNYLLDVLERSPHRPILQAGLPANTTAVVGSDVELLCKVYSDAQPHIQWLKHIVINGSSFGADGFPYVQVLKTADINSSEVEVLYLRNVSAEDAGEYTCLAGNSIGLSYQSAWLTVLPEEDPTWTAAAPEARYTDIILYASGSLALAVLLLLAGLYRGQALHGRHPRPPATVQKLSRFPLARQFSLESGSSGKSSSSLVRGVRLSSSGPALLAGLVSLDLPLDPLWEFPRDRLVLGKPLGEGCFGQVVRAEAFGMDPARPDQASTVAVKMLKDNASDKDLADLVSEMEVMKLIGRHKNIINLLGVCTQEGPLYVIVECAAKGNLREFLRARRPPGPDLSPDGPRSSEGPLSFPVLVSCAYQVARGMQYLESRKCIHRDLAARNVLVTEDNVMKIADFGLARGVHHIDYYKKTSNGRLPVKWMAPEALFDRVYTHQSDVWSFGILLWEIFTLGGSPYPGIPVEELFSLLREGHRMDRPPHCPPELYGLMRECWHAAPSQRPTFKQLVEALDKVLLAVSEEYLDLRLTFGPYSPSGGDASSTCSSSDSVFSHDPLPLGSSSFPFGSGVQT

The first assay concerns the target T1, FGFR4 (Homo sapiens, UniProt P22455).
T1 construct: purchased Invitrogen
Kind of assay: IC50 Profiling of Kinase Activity Inhibition (Kinase HotSpot assay).
Conditions: not given
The format is biochemical.
`C=CC(=O)Nc1cc(N2CCN(C(C)=O)CC2)ccc1Nc1cc(N(C)C(=O)Nc2c(Cl)c(OC)cc(OC)c2Cl)ncn1` [Compound 154, N-(5-(4-acetylpiperazin-1-yl)-2-((6-(3-(2,6-dichloro-3,5-dimethoxyphenyl)-1-methylureido)pyrimidin-4-yl)amino)phenyl)acrylamide]: the pIC50 was > 9.00.

The same assay, now with this note: Table 1.
With `C=CC(=O)Nc1cc(OCCO)ccc1Nc1cc(N(C)C(=O)Nc2c(Cl)c(OC)cc(OC)c2Cl)ncn1` [Compound 164, 2,2,2-trifluoroacetate], the pIC50 is > 9.00.
The compound `C=CC(=O)Nc1c(Nc2cc(N(C)C(=O)Nc3c(Cl)c(OC)cc(OC)c3Cl)ncn2)cccc1OC` [Compound 186] showed a pIC50 of 6.46.
Turning to `C=CC(=O)Nc1ccccc1Nc1cc(N(CCOC)C(=O)Nc2c(Cl)c(OC)cc(OC)c2Cl)ncn1` [Compound 116, N-(2-{6-[3-(2,6-Dichloro-3,5-dimethoxy-phenyl)-1-(2-methoxy-ethyl)-ureido]-pyrimidin-4-ylamino}-phenyl)-acrylamide], the pIC50 was 8.40.
Take `C=CC(=O)Nc1cc(C(=O)N2CCN(CC)CC2)ccc1Nc1cc(N(C)C(=O)Nc2c(Cl)c(OC)cc(OC)c2Cl)ncn1` [Compound 150, N-(2-((6-(3-(2,6-dichloro-3,5-dimethoxyphenyl)-1-methylureido)pyrimidin-4-yl)amino)-5-(4-ethylpiperazine-1-carbonyl)phenyl)acrylamide]: the pIC50 is > 9.00.
Same read-out and setting: in the case of `C=CC(=O)Nc1cc(N(C)CCO)ccc1Nc1cc(N(C)C(=O)Nc2c(Cl)c(OC)cc(OC)c2Cl)ncn1` [Compound 158, N-(2-((6-(3-(2,6-dichloro-3,5-dimethoxyphenyl)-1-methylureido)pyrimidin-4-yl)amino)-5-((2-hydroxyethyl)(methyl)amino)phenyl)acrylamide] it was > 9.00.
The same measure, in the same setting: in the case of `C=CC(=O)Nc1cc(N2CCN(C)CC2)ccc1Nc1cc(N(C)C(=O)Nc2c(Cl)c(OC)cc(OC)c2Cl)ncn1` [Compound 159] it was > 9.00; in that of `C=CC(=O)N(C)c1cc(N2CCN(CC)CC2)ccc1Nc1cc(N(C)C(=O)Nc2c(Cl)c(OC)cc(OC)c2Cl)ncn1` [Compound 152], 7.85.
The same measure, in the same setting: in the case of `C=CC(=O)Nc1cc(C2CCN(C)CC2)ccc1Nc1cc(N(C)C(=O)Nc2c(Cl)c(OC)cc(OC)c2Cl)ncn1` [Compound 112, N-(2-(6-(3-(2,6-dichloro-3,5-dimethoxyphenyl)-1-methylureido)pyrimidin-4-ylamino)-5-(1-methylpiperidin-4-yl)phenyl)acrylamide] it was > 9.00.
For `C=CC(=O)Nc1cc(N2CCN(S(C)(=O)=O)CC2)ccc1Nc1cc(N(C)C(=O)Nc2c(Cl)c(OC)cc(OC)c2Cl)ncn1` [Compound 125, N-[2-{6-[3-(2,6-Dichloro-3,5-dimethoxy-phenyl)-1-methyl-ureido]-pyrimidin-4-ylamino}-5-(4-methanesulfonyl-piperazin-1-yl)-phenyl]-acrylamide], the negative-log IC50 (pIC50) was > 9.00.
On to `CCN1CCN(c2ccc(Nc3cc(N(C)C(=O)Nc4c(Cl)c(OC)cc(OC)c4Cl)ncn3)c(NC(=O)/C=C\Cl)c2)CC1` [Compound 181, (Z)-3-chloro-N-(2-((6-(3-(2,6-dichloro-3,5-dimethoxyphenyl)-1-methylureido)pyrimidin-4-yl)amino)-5-(4-ethylpiperazin-1-yl)phenyl)acrylamide], for which the pIC50 is > 9.00.
On the same count and under the same terms, in the case of `C=CC(=O)Nc1cc(N2CCN(CC)CC2)ccc1Nc1cc(N(C)C(=O)Nc2c(F)c(OC)cc(OC)c2F)ncn1` [Compound 143] it was 8.00.
For `C=CC(=O)Nc1cc(C(C)O)ccc1Nc1cc(N(C)C(=O)Nc2c(Cl)c(OC)cc(OC)c2Cl)ncn1` (centres unmarked) [Compound 156, N-(2-((6-(3-(2,6-dichloro-3,5-dimethoxyphenyl)-1-methylureido)pyrimidin-4-yl)amino)-5-(1-hydroxyethyl)phenyl) acrylamide], the negative-log IC50 (pIC50) was > 9.00.
On the same count and under the same terms, in the case of `C=CC(=O)Nc1cccc(Cl)c1Nc1cc(N(C)C(=O)Nc2c(Cl)c(OC)cc(OC)c2Cl)ncn1` [Compound 167, N-(3-chloro-2-((6-(3-(2,6-dichloro-3,5-dimethoxyphenyl)-1-methylureido)pyrimidin-4-yl)amino)phenyl)acrylamide] it was > 9.00; in that of `C=CC(=O)Nc1cc(C(=O)N(C)C)ccc1Nc1cc(N(C)C(=O)Nc2c(Cl)c(OC)cc(OC)c2Cl)ncn1` [Compound 149, 3-acrylamido-4-((6-(3-(2,6-dichloro-3,5-dimethoxyphenyl)-1-methylureido)pyrimidin-4-yl)amino)-N,N-dimethylbenzamide], > 9.00; in that of `C=CC(=O)Nc1cc(COC)ccc1Nc1cc(N(C)C(=O)Nc2c(Cl)c(OC)cc(OC)c2Cl)ncn1` [Compound 147, N-(2-((6-(3-(2,6-dichloro-3,5-dimethoxyphenyl)-l-methylureido)pyrimidin-4-yl)amino)-5-(methoxymethyl)phenyl)acrylamide], > 9.00.
Regarding `C=CC(=O)Nc1cc(N2CCN(CCN)CC2)ccc1Nc1cc(N(C)C(=O)Nc2c(Cl)c(OC)cc(OC)c2Cl)ncn1` [Compound 161, N-(5-(4-(2-aminoethyl)piperazin-1-yl)-2-((6-(3-(2,6-dichloro-3,5-dimethoxyphenyl)-1-methylureido)pyrimidin-4-yl)amino)phenyl)acrylamide 2 TFA salt], the pIC50 was > 9.00.
Turning to `C=CC(=O)Nc1ccccc1Nc1cc(N(CCNC(C)C)C(=O)Nc2c(Cl)c(OC)cc(OC)c2Cl)ncn1` [Compound 183], the pIC50 was 6.74.
The compound `C=CC(=O)Nc1c(F)cccc1Nc1cc(N(C)C(=O)Nc2c(Cl)c(OC)cc(OC)c2Cl)ncn1` [Compound 185, N-(2-((6-(3-(2,6-dichloro-3,5-dimethoxyphenyl)-1-methylureido)pyrimidin-4-yl)amino)-6-fluorophenyl)acrylamide] showed a pIC50 of 7.89.
The same measure, in the same setting: under `C=CC(=O)Nc1cc(N2CCN(CC)CC2)ccc1Nc1cc(N(C)C(=O)Nc2cc(OC)cc(OC)c2Cl)ncn1` [Compound 141, N-(2-((6-(3-(2-chloro-3,5-dimethoxyphenyl)-1-methylureido)pyrimidin-4-yl)amino)-5-(4-ethylpiperazin-1-yl)phenyl)acrylamide] stands 8.70; under `C=CC(=O)Nc1cccc(OC)c1Nc1cc(N(C)C(=O)Nc2c(Cl)c(OC)cc(OC)c2Cl)ncn1` [Compound 166, N-(2-((6-(3-(2,6-dichloro-3,5-dimethoxyphenyl)-1-methylureido)pyrimidin-4-yl)amino)-3-methoxyphenyl)acrylamide], > 9.00.
Regarding `C=CC(=O)Nc1ccccc1Nc1cc(N(CCCN2CCN(C)CC2)C(=O)Nc2c(Cl)c(OC)cc(OC)c2Cl)ncn1` [Compound 121, N-[2-(6-{3-(2,6-Dichloro-3,5-dimethoxy-phenyl)-1-[3-(4-methyl-piperazin-1-yl)-propyl]-ureido}-pyrimidin-4-ylamino)-phenyl]-acrylamide], the pIC50 was > 9.00.
On the same count and under the same terms, under `C=CC(=O)Nc1cc(C(C)OC)ccc1Nc1cc(N(C)C(=O)Nc2c(Cl)c(OC)cc(OC)c2Cl)ncn1` (centres unmarked) [Compound 155, N-(2-((6-(3-(2,6-dichloro-3,5-dimethoxyphenyl)-1-methylureido)pyrimidin-4-yl)amino)-5-(1-methoxyethyl)phenyl)acrylamide] stands > 9.00.
